Activity calls are given as the source filed them. The calls are words filed in the database; no cut-off is given here.
Assays:
[1] = tested on: MDA-MB-468; assay: Antiproliferative activity against human MDA-MB-468 cells assessed as reduction in cell viability after 2 to 4 days by CCK-8 assay; type: functional, cell-based
[2] = tested on: MDA-MB-468; assay: Antiproliferative activity against human MDA-MB-468 3D spheroids assessed as reduction in cell viability after 2 to 4 days by CCK-8 assay; type: functional, cell-based
[3] = molecular target: T1, Tyrosine-protein phosphatase non-receptor type 11 (Homo sapiens) (UniProt Q06124); assay: Inhibition of recombinant human SHP2 expressed in Escherichia coli using 2P-IRS1 peptide as substrate at 1 uM after 1 hr by microplate reader analysis relative to control
T1 sequence (whole entry): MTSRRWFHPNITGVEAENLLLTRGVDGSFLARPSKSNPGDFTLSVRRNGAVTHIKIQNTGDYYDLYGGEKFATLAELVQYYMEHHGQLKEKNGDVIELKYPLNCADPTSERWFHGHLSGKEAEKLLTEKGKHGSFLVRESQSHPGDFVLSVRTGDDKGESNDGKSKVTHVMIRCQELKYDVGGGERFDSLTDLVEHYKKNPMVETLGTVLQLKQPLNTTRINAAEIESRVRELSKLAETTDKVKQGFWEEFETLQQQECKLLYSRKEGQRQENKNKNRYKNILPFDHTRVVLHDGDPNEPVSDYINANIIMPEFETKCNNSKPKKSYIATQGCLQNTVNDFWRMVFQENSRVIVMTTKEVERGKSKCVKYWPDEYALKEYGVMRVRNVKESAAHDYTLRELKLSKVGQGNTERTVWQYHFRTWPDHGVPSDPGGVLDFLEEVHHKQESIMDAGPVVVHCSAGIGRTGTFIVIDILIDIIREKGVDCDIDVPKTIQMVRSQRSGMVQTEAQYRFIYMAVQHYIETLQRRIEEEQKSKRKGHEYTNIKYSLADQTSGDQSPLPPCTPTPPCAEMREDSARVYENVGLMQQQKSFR

[4] = molecular target: T2, Tyrosine-protein phosphatase non-receptor type 11 (Homo sapiens, UniProt Q06124); assay: Inhibition of recombinant human SHP2 expressed in Escherichia coli using 2P-IRS1 peptide as substrate after 1 hr by microplate reader analysis
T2 sequence (Q06124 whole entry): T1 sequence (whole entry)

[5] = tested on: MDA-MB-468; assay: Potency index, ratio of SHP099 IC50 to compound IC50 for antiproliferative activity against human MDA-MB-468 cells after 2 to 4 days by CCK-8 assay; type: functional
[6] = tested on: MDA-MB-468; assay: Antiproliferative activity against SHP2 knockout human MDA-MB-468 cells with assessed as increase in cell viability at 100 uM after 2 to 4 days by CCK-8 assay relative to MDA-MB-468 cells expressing SHP2; type: functional
[7] = tested on: MDA-MB-468; assay: Antiproliferative activity against human MDA-MB-468 3D spheroids assessed as reduction in cell viability at 20 uM after 2 to 4 days by CCK-8 assay relative to control; type: functional
[8] = molecular target: T1, Tyrosine-protein phosphatase non-receptor type 11 (Homo sapiens); assay: Non-competitive inhibition of recombinant human SHP2 expressed in Escherichia coli using 2P-IRS1 peptide as substrate up to 200 uM after 1 hr by Lineweaver-Burk plot analysis

Structure (SMILES)	inhibition [3]	IC50 [4]	also measured
CC1(N)CCN(c2cnc(-c3cccc(Cl)c3Cl)c(N)n2)CC1	–	–	IC50 [1]: 29.9 µM; IC50 [2]: 49.6 µM
CC(C)OC(=O)c1cc(O)c(=O)c2c(O)c(O)ccc2c1	2%	4.87 µM	–
N#Cc1cc(O)c(=O)c2c(O)c(O)ccc2c1	40%	1.23 µM	–
CCOC(=O)c1cc(O)c(=O)c2c(O)c(O)c(F)cc2c1	19%	6.54 µM	–
COc1cc2cc(C(N)=O)cc(O)c(=O)c2c(O)c1O	0%	–	–
O=c1c(O)cccc2ccc(O)c(O)c12	0%	–	–
O=C(O)c1cc(O)c(=O)c2c(O)c(O)ccc2c1 [7-DESHYDROXYPYROGALLIN-4-CARBOXYLIC ACID]	93%	0.097 µM	IC50 [1]: 5.3 µM; Ratio IC50 [5]: 5.6; fold change (FC) [6]: 19.3; IC50 [2]: 35.8 µM; Activity [7]: 35.7%; inhibition [8]: Active
O=C(O)c1cc(O)c(=O)c2c(O)c(O)c(F)cc2c1	90%	0.277 µM	IC50 [1]: 71 µM; fold change (FC) [6]: 16.3; IC50 [2]: 39.2 µM; Activity [7]: 37.2%
COC(=O)c1cc(O)c(=O)c2c(O)c(O)c(F)cc2c1	12%	7.55 µM	–
CC(C)OC(=O)c1cc(O)c(=O)c2c(O)c(O)c(F)cc2c1	0.47%	7.74 µM	–
CCOC(=O)c1cc(O)c(=O)c2c(O)c(O)ccc2c1	50%	0.985 µM	–
NC(=O)c1cc(O)c(=O)c2c(O)c(O)c(F)cc2c1	52%	0.949 µM	–
COc1ccc2cc(C(=O)O)cc(OC)c(=O)c2c1OC	0%	–	–
COC(=O)c1cc(OC)c(=O)c2c(OC)c(OC)ccc2c1	0%	–	–
O=c1c(O)cc(-c2nc(CCl)co2)cc2ccc(O)c(O)c12	29%	1.57 µM	–
NC(=O)c1cc(O)c(=O)c2c(O)c(O)ccc2c1	13%	4.11 µM	–
COC(=O)c1cc(O)c(=O)c2c(O)c(O)c(OC)cc2c1	6%	8.66 µM	–
COC(=O)c1cc(O)c(=O)c2c(O)c(O)ccc2c1 [METHYL 7-DESHYDROXYPYROGALLIN-4-CARBOXYLATE]	87%	0.161 µM	IC50 [1]: 4.6 µM; fold change (FC) [6]: 3; IC50 [2]: 62.9 µM; Activity [7]: 27.5%

From ChEMBL document CHEMBL4342437, “Development and structure-activity relationship study of SHP2 inhibitor containing 3,4,6-trihydroxy-5-oxo-5H-benzo[7]annulene” (Bioorg Med Chem Lett, 2020)
